Experimental findings from US20230099344A1, “COMPOUNDS AND METHODS FOR THE TARGETED DEGRADATION OF IRAK-4” (Arvinas Operations, Inc., priority 2021, published 2023) are described below.

SMILES strings stand for the structures.

In this assay the target is T1, IRAK-4 (Homo sapiens, UniProt Q9NWZ3).
T1 sequence (Q9NWZ3 1-460): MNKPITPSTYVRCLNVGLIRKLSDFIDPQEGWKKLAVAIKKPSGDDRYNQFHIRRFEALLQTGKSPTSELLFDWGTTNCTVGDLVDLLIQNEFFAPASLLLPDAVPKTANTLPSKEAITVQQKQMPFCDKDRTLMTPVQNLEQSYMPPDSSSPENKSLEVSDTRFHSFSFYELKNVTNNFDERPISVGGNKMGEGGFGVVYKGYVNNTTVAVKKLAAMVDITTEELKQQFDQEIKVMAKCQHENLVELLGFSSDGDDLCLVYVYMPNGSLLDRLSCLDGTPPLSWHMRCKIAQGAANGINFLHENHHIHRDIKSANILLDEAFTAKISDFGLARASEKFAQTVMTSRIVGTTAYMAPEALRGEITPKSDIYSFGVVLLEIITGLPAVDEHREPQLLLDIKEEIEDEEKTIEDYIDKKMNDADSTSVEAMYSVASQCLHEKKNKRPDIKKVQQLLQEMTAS
Briefly: IRAK-4 ELISA, PBMC degradation. The format is cell-based. Details: endogenous in cells; host or cells: PBMC. To be noted: treated overnight. The procedure:
Reagents: Human IRAK-4 Matched Antibody Pair Kit (Abcam ab218182) and ELISA Accessory Pack (Abcam ab210905).
Cell Treatment and Lysis:
1. OCI-Ly10: 200,000 cells are seeded at 1×10^6/ml in 96-well U-bottom plates 200 ul per well, treated with compound the same day. Incubate overnight. 2. PBMC: 800,000 cells are seeded at 2×10^6/ml in 96-well U-bottom deep-well plates, 400 ul per well, treated with compound the same day. Incubate overnight.
Cell lysate is collected and analyzed by ELISA for IRAK-4 levels.

With `CN1CC(Oc2cc3nn(C4CCN(CC5CN(c6ccc7c(c6)C(=O)N(C6CCC(=O)NC6=O)C7=O)C5)CC4)cc3cc2NC(=O)c2cnn3cccnc23)C1` (stereo not drawn) [Example 151], the 50% degradation concentration (DC50) fell in the range of 5 to 10 nM, the Dmax lay in the range of 70 to 80% and the “PBMC DC90” value is reported as “D (D represents a DC90 value ≥50 nM)”.

For the molecule `CN1CC(Oc2cc3nn(C4CCN(CC5CCN(c6ccc7c(c6)C(=O)N(C6CCC(=O)NC6=O)C7=O)CC5)CC4)cc3cc2NC(=O)c2cnn3cccnc23)C1` (stereo not drawn) [Example 152], the 50% degradation concentration (DC50) is not below 10 nM, the maximal degradation (Dmax) is less than 70% and the “PBMC DC90” value was “D (D represents a DC90 value ≥50 nM)”.

Take `O=C1CCC(N2C(=O)c3ccc(N4CC(O)(CN5CCC(n6cc7cc(NC(=O)c8cnn9cccnc89)c(OCC8CC8)cc7n6)CC5)C4)cc3C2=O)C(=O)N1` (stereo not drawn) [Example 169]: the half-maximal degradation concentration (DC50) is less than 1 nM, the Dmax is not below 90% and the “PBMC DC90” value is listed as 122 nM.

In the case of `O=C1CCC(N2C(=O)c3ccc(N4CCC(N5CCC(n6cc7cc(NC(=O)c8cnn9cccnc89)c(OCC8CC8)cc7n6)CC5)CC4)cc3C2=O)C(=O)N1` (stereo not drawn) [Example 170], the DC50 is less than 1 nM, the greatest degradation seen (Dmax) was not below 90% and the “PBMC DC90” value is given as “A (A represents a DC90 value <10.0 nM)”.

Regarding `O=C1CCC(N2C(=O)c3ccc(N4CCC[C@H](CN5CCC(n6cc7cc(NC(=O)c8cnn9cccnc89)c(OCC8CC8)cc7n6)CC5)C4)cc3C2=O)C(=O)N1` (stereo partly drawn) [Example 174], the half-maximal degradation concentration (DC50) fell in the range of 1 to 5 nM; the maximal degradation (Dmax) was not below 90%; the “PBMC DC90” value was “B (B represents a DC90 value ≥10.0 nM and <25.0 nM)”.

Regarding `O=C1CCC(N2C(=O)c3ccc(N4CCC[C@@H](CN5CCC(n6cc7cc(NC(=O)c8cnn9cccnc89)c(OCC8CC8)cc7n6)CC5)C4)cc3C2=O)C(=O)N1` (stereo partly drawn) [Example 175], the DC50 is 1 to 5 nM; the Dmax is not below 90%; the “PBMC DC90” value was “B (B represents a DC90 value ≥10.0 nM and <25.0 nM)”.

For the molecule `O=C1CCC(N2C(=O)c3ccc(N4CCO[C@@H](CN5CCC(n6cc7cc(NC(=O)c8cnn9cccnc89)c(OCC8CC8)cc7n6)CC5)C4)cc3C2=O)C(=O)N1` (stereo partly drawn) [Example 176], the 50% degradation concentration (DC50) is less than 1 nM, the greatest degradation seen (Dmax) was not below 90% and the “PBMC DC90” value is “A (A represents a DC90 value <10.0 nM)”.

For the molecule `O=C1CCC(N2C(=O)c3ccc(N4CCO[C@H](CN5CCC(n6cc7cc(NC(=O)c8cnn9cccnc89)c(OCC8CC8)cc7n6)CC5)C4)cc3C2=O)C(=O)N1` (stereo partly drawn) [Example 177], the 50% degradation concentration (DC50) was less than 1 nM, the Dmax was not below 90% and the “PBMC DC90” value is listed as “A (A represents a DC90 value <10.0 nM)”.

With `O=C1CCC(N2C(=O)c3ccc(N4CC(O[C@H]5CC[C@H](n6cc7cc(NC(=O)c8cnn9cccnc89)c(OCC8CC8)cc7n6)CC5)C4)cc3C2=O)C(=O)N1` (stereo partly drawn) [Example 183], the DC50 fell in the range of 1 to 5 nM; the greatest degradation seen (Dmax) was not below 90%; the “PBMC DC90” value is “B (B represents a DC90 value ≥10.0 nM and <25.0 nM)”.

Consider `O=C1CCC(N2C(=O)c3ccc(N4CC(CN5CCC(n6cc7cc(NC(=O)c8cnn9cccnc89)c(C8CC8)cc7n6)CC5)C4)cc3C2=O)C(=O)N1` (stereo not drawn) [Example 185], for which the DC50 is less than 1 nM, the greatest degradation seen (Dmax) is not below 90% and the “PBMC DC90” value is “A (A represents a DC90 value <10.0 nM)”.

In the case of `O=C1CCC(N2C(=O)c3ccc(N4CCC(CN5CCC(n6cc7cc(NC(=O)c8cnn9cccnc89)c(C8CC8)cc7n6)CC5)CC4)cc3C2=O)C(=O)N1` (stereo not drawn) [Example 186], the DC50 lay in the range of 1 to 5 nM, the greatest degradation seen (Dmax) is not below 90% and the “PBMC DC90” value was “A (A represents a DC90 value <10.0 nM)”.

On to `CC(C)Oc1cc2nn(C3CCN(CC4CN(c5ccc6c(c5)C(=O)N(C5CCC(=O)NC5=O)C6=O)C4)CC3)cc2cc1NC(=O)c1cnn2cccnc12` (stereo not drawn) [Example 187], for which the DC50 is less than 1 nM, the maximal degradation (Dmax) is not below 90% and the “PBMC DC90” value is reported as “A (A represents a DC90 value <10.0 nM)”.

`CC(C)Oc1cc2nn(C3CCN(CC4(F)CCN(c5ccc6c(c5)C(=O)N(C5CCC(=O)NC5=O)C6=O)CC4)CC3)cc2cc1NC(=O)c1cnn2cccnc12` (stereo not drawn) [Example 188]: the 50% degradation concentration (DC50) was in the range of 5 to 10 nM, the Dmax was not below 90% and the “PBMC DC90” value is reported as “D (D represents a DC90 value ≥50 nM)”.

`CC(C)Oc1cc2nn(C3CCN(CC4(F)CN(c5cc6c(cc5F)C(=O)N(C5CCC(=O)NC5=O)C6=O)C4)CC3)cc2cc1NC(=O)c1cnn2cccnc12` (stereo not drawn) [Example 189]: the DC50 is less than 1 nM, the Dmax was not below 90% and the “PBMC DC90” value was “A (A represents a DC90 value <10.0 nM)”.

As to `CC(C)Oc1cc2nn(C3CCN(CC4(F)CN(c5ccc6c(c5)C(=O)N(C5CCC(=O)NC5=O)C6=O)C4)CC3)cc2cc1NC(=O)c1cnn2ccc(N3CCOCC3)nc12` (stereo not drawn) [Example 190], the DC50 is not below 10 nM, the Dmax is not below 90% and the “PBMC DC90” value is “D (D represents a DC90 value ≥50 nM)”.

Consider `CC(C)Oc1cc2nn(C3CCN(CC4(F)CN(c5ccc6c(c5)C(=O)N(C5CCC(=O)NC5=O)C6=O)C4)CC3)cc2cc1NC(=O)c1cnn2ccc(N3C[C@H]4C[C@@H]3CO4)nc12` (stereo partly drawn) [Example 191], for which the DC50 lay within 5 to 10 nM, the Dmax fell in the range of 80 to 90% and the “PBMC DC90” value is recorded as “D (D represents a DC90 value ≥50 nM)”.

Turning to `CC(C)Oc1cc2nn(C3CCN(CC4(C)CN(c5ccc6c(c5)C(=O)N(C5CCC(=O)NC5=O)C6=O)C4)CC3)cc2cc1NC(=O)c1cnn2cccnc12` (stereo not drawn) [Example 192], the DC50 lay within 1 to 5 nM, the Dmax was in the range of 80 to 90% and the “PBMC DC90” value is listed as “A (A represents a DC90 value <10.0 nM)”.

Take `CC(C)Oc1cc2nn(C3CN(CC4(F)CCN(c5ccc6c(c5)C(=O)N(C5CCC(=O)NC5=O)C6=O)CC4)C3)cc2cc1NC(=O)c1cnn2cccnc12` (stereo not drawn) [Example 194]: the DC50 fell in the range of 1 to 5 nM; the Dmax is not below 90%; the “PBMC DC90” value is “C (C represents a DC90 value ≥25.0 nM and <50 nM)”.

As for `CCOc1cc2nn(C3CCN(CC4(F)CN(c5ccc6c(c5)C(=O)N(C5CCC(=O)NC5=O)C6=O)C4)CC3)cc2cc1NC(=O)c1cnn2cccnc12` (stereo not drawn) [Example 195], the DC50 was in the range of 1 to 5 nM; the maximal degradation (Dmax) was not below 90%; the “PBMC DC90” value is “B (B represents a DC90 value ≥10.0 nM and <25.0 nM)”.

For the molecule `O=C1CCC(N2C(=O)c3ccc(N4CC(F)(CN5CCC(n6cc7cc(NC(=O)c8cnn9cccnc89)c(OC8CCC8)cc7n6)CC5)C4)cc3C2=O)C(=O)N1` (stereo not drawn) [Example 196], the DC50 lay within 1 to 5 nM; the maximal degradation (Dmax) lay within 80 to 90%; the “PBMC DC90” value was “B (B represents a DC90 value ≥10.0 nM and <25.0 nM)”.

For the molecule `O=C1CCC(N2C(=O)c3ccc(N4CC(CN5CCC(n6cc7cc(NC(=O)c8cnn9cccnc89)c(OC8CCC8)cc7n6)CC5)C4)cc3C2=O)C(=O)N1` (stereo not drawn) [Example 197], the DC50 was less than 1 nM, the Dmax fell in the range of 80 to 90% and the “PBMC DC90” value was “A (A represents a DC90 value <10.0 nM)”.

On to `O=C1CCC(N2C(=O)c3ccc(N4CC(F)(CN5CCC(n6cc7cc(NC(=O)c8cnn9cccnc89)c(OC8CCCC8)cc7n6)CC5)C4)cc3C2=O)C(=O)N1` (stereo not drawn) [Example 198], for which the half-maximal degradation concentration (DC50) was 5 to 10 nM; the maximal degradation (Dmax) is not below 90%; the “PBMC DC90” value was “B (B represents a DC90 value ≥10.0 nM and <25.0 nM)”.

Consider `O=C1CCC(N2C(=O)c3ccc(N4CC(F)(CN5CCC(n6cc7cc(NC(=O)c8cnn9cccnc89)c(C8CC8)cc7n6)CC5)C4)cc3C2=O)C(=O)N1` (stereo not drawn) [Example 199], for which the DC50 fell in the range of 1 to 5 nM; the greatest degradation seen (Dmax) is not below 90%; the “PBMC DC90” value is “B (B represents a DC90 value ≥10.0 nM and <25.0 nM)”.

`O=C1CCC(N2C(=O)c3ccc(N4CC(F)(CN5CCC(n6cc7cc(NC(=O)c8cnn9cccnc89)c(OC8CC8)cc7n6)CC5)C4)cc3C2=O)C(=O)N1` (stereo not drawn) [Example 200]: the DC50 is 1 to 5 nM, the Dmax is not below 90% and the “PBMC DC90” value was “A (A represents a DC90 value <10.0 nM)”.

For the molecule `O=C1CCC(N2Cc3cc(N4CC(F)(CN5CCC(n6cc7cc(NC(=O)c8cnn9cccnc89)c(OC8CCC8)cc7n6)CC5)C4)ccc3C2=O)C(=O)N1` (stereo not drawn) [Example 214], the DC50 was less than 1 nM, the Dmax is 70 to 80% and the “PBMC DC90” value was “A (A represents a DC90 value <10.0 nM)”.

As to `O=C1CCC(N2C(=O)c3ccc(N4CC(F)(CN5CCC(N6Cc7cc(NC(=O)c8cnn9cccnc89)c(OC8CCC8)cc7C6=O)CC5)C4)cc3C2=O)C(=O)N1` (stereo not drawn) [Example 215], the DC50 fell in the range of 1 to 5 nM, the maximal degradation (Dmax) is 70 to 80% and the “PBMC DC90” value was “A (A represents a DC90 value <10.0 nM)”.

With `O=C1CCC(N2Cc3cc(N4CC(F)(CN5CCC(n6cc7cc(NC(=O)c8cnn9cccnc89)c(OC8CCC8)cc7n6)CC5)C4)ccc3C2=O)C(=O)N1` (stereo not drawn) [Example 216], the 50% degradation concentration (DC50) is less than 1 nM; the “PBMC DC90” value is on record as “A (A represents a DC90 value <10.0 nM)”; the “PBMC Dmax” value is “B (B represents a Dmax value ≥80 and <90)”.

For the molecule `COc1cc(N2CC(F)(CN3CCC(n4cc5cc(NC(=O)c6cnn7cccnc67)c(OC(C)C)cc5n4)CC3)C2)cc2c1C(=O)N(C1CCC(=O)NC1=O)C2=O` (stereo not drawn) [Example 217], the DC50 is less than 1 nM, the maximal degradation (Dmax) lay within 80 to 90% and the “PBMC DC90” value was “A (A represents a DC90 value <10.0 nM)”.
